Measurements: patent publication US20230129364A1, “PYRROLIDINE DERIVATIVE, AND PHARMACEUTICAL COMPOSITION FOR PREVENTING OR TREATING BETA-AMYLOID OR TAU PROTEIN-ASSOCIATED DISEASES CONTAINING SAME” (YONSEI UNIVERSITY, UNIVERSITY - INDUSTRY FOUNDATION (UIF), priority 2019, published 2023)

Legend:
Assay type in all cases: biochemical
[1] = molecular target: T1, Tau protein (wild-type K18) (Homo sapiens, UniProt P10636); test: Tau protein aggregation inhibition test (thioflavin T assay); conditions: heparin/DTT-induced aggregation, 37° C. 5 days, ThT fluorescence vs tau-only control = 100%
T1 construct: Tau protein (wild-type K18)
T1 sequence (P10636 561-685 limits assumed): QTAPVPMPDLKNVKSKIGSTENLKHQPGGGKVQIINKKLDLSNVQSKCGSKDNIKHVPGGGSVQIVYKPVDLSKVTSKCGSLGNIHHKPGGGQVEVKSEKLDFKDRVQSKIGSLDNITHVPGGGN
Protocol: (§1) Tau protein (wild-type K18) was dissolved in phosphate-buffered saline (PBS, pH 7.4) at a concentration of 1 mg/mL to prepare a tau protein solution. In order to induce aggregation of tau proteins, 0.1 mg/mL of heparin and 100 μM dithiothreitol (DTT) were added to 1 mg/mL of the tau protein solution, followed by incubation at 37° C. for 5 days. At this time, the result was mixed with each test compound (50, 500 μM) such that the final concentration reached 0.5 mg/mL, followed by further incubation.
The inhibitory effect of each compound against tau aggregation was measured based on the intensity of fluorescence by thioflavin T (ThT) assay (see Example 2). More specifically, 25 μL of the reaction solution was charged in each well of a 96-well plate for fluorescence analysis, and 75 μL of the prepared thioflavin-T solution was then charged in each well. The reaction was allowed to proceed at room temperature in a dark laboratory for 5 minutes, and then fluorescence values were measured at an excitation wavelength of 450 nm and an emission wavelength of 485 nm using a multi-mode microplate reader.
The ratio of the fluorescence value measured in the group obtained by treating with each test compound to 100% of the fluorescence value of the group (control group) obtained by treating only with tau proteins and inducing aggregation for 5 days is set forth in Table 5 below: […]

[2] = molecular target: T2, aggregated tau protein (wild-type K18) (Homo sapiens, UniProt P10636); test: Tau protein aggregate degradation test (thioflavin T assay); conditions: pre-aggregated tau, further 5 days at 37° C., ThT fluorescence vs control = 100%
T2 construct: Tau protein (wild-type K18)
T2 sequence (P10636 561-685 limits assumed): as above
Protocol: as §1, with “solution.” for “solution. In order to induce aggregation of tau proteins,”, “days to induce tau protein aggregation. The aggregated tau protein” for “days. At this time, the result”, “in an amount of 50 or” for “(50,”, “μM” for “μM)”, “incubation at 37° C. for 5 days to induce reaction.” for “incubation.”
The degradation effect of each compound on the tau aggregates was measured by thioflavin T (ThT) assay (see Example 2). More specifically, 25 μL of the reaction solution was charged in each well of a 96-well plate for fluorescence analysis and 75 μL of the prepared thioflavin-T solution was charged in each well. The reaction was allowed to proceed at room temperature in a dark laboratory for 5 minutes and then fluorescence values were measured at an excitation wavelength of 450 nm and an emission wavelength of 485 nm using a multi-mode microplate reader.
The ratio of the fluorescence value measured in the group obtained by treating with each test compound to 100% of the fluorescence value of the group (control group) obtained by treating only with tau proteins and inducing aggregation for 5 days is set forth in Table 6 below: […]

[3] = molecular target: T3, aggregated beta-amyloid; human Aβ 1-42 (UniProtKB-P05067, a.a. 672-713) (Homo sapiens, UniProt P05067); test: Beta-amyloid aggregate degradation test (thioflavin T assay); conditions: pre-aggregated Aβ, further 3 days at 37° C., ThT fluorescence vs control = 100%
T3 construct: UniProtKB-P05067, a.a; 672-713
T3 sequence (P05067 672-713): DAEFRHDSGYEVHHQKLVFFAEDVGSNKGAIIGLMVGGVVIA
Protocol: Aβ (beta-amyloid; human A3 1-42 monomer (UniProtKB-P05067, a.a. 672-713)) was dissolved at a concentration of 10 mM in dimethyl sulfoxide (DMSO), and the resulting solution was diluted to 250 μM using distilled water, and then incubated at 37° C. for 3 days to induce aggregation. The aggregated beta-amyloid was added with each test compound in an amount of 50 or 500 μM such that the final concentration reached 25 μM, and was further cultured at 37° C. for 3 days to induce reaction. The aggregate degradation effect of each test compound was measured by thioflavin T (ThT) assay (see Example 2). Specifically, 25 μL of the reaction solution was charged in each well of a 96-well plate for fluorescence analysis and 75 μL of the prepared thioflavin-T solution was charged in each well. The reaction was allowed to proceed at room temperature in a dark laboratory for 5 minutes and then fluorescence values were measured at an excitation wavelength of 450 nm and an emission wavelength of 485 nm using a multi-mode microplate reader. The ratio of the fluorescence value measured in the group obtained by treating with each test compound to 100% of the fluorescence value of the group (control group) obtained by treating only with beta-amyloids and inducing aggregation for 3 days is set forth in Table 4 below: […]

| Structure (SMILES) | Tau aggregation remaining (ThT fluorescence, % of tau-only control) ([1]; 50 uM test compound) | Tau aggregation remaining (ThT fluorescence, % of tau-only control) ([1]; 500 uM test compound) | ThT fluorescence remaining (% of control) ([2]; 50 uM test compound) | ThT fluorescence remaining (% of control) ([2]; 500 uM test compound) | Beta-amyloid aggregate degradation activity (% of control) ([3]; 50 uM test compound) | Beta-amyloid aggregate degradation activity (% of control) ([3]; 500 uM test compound) |
| --- | --- | --- | --- | --- | --- | --- |
| CCN1C(=O)/C(=C/c2c[nH]c3cccnc23)SC1=S [DN205781, (Z)-5-((1H-pyrrolo[3,2-b]pyridin-3-yl)methylene)-3-ethyl-2-thioxothiazolidin-4-one] | 74.46 % of control | 52.99 % of control | 28.74 % of control | 23.79 % of control | 85.76 % of control | 55.35 % of control |
| CCN1C(=O)/C(=C/c2c[nH]c3cccnc23)NC1=S [DN204817, (Z)-5-((1H-pyrrolo[3,2-b]pyridin-3-yl)methylene)-3-ethyl-2-thioxoimidazolidin-4-one] | 87.3 % of control | 66.18 % of control | 49.84 % of control | 43.06 % of control |  | 78.39 % of control |
| O=C1NC(=S)S/C1=C\c1ccc2occc2c1 [DN204809, (Z)-5-(benzofuran-5-ylmethylene)-2-thioxothiazolidin-4-one] | 36.72 % of control | 32.09 % of control | 51.93 % of control | 30.87 % of control | 95.14 % of control | 25.32 % of control |
| CCN1C(=O)C(Cc2ccc3occc3c2)NC1=S (stereo not drawn) [DN205353, 5-(benzofnran-5-ylmethyl)-3-ethyl-2-thioxoimidazolidin-4-one] | 61.551 % of control | 66.948 % of control | 66.25 % of control | 80.59 % of control |  | 90.19 % of control |
| CCN1C(=O)/C(=C/c2c[nH]c3ccccc23)NC1=S [DN204811, (Z)-5-((1H-indol-3-yl)methylene)-3-ethyl-2-thioxoimidazolidin-4-one] | 43.22 % of control | 40.21 % of control | 50.44 % of control | 31.04 % of control | 74.64 % of control | 28.97 % of control |
| O=C1NC(=S)SC1Cc1cc[nH]c1 (stereo not drawn) [DN204303, 5-((1H-pyrrol-3-yl)methyl)-2-thioxothiazolidin-4-one] | 82.4 % of control | 29.14 % of control | 81.77 % of control | 39.19 % of control | 90.66 % of control | 33.65 % of control |
| O=C1NC(=S)S/C1=C\c1csc2ccccc12 [DN204818, (Z)-5-(benzo[b]thiophen-3-ylmethylene)-2-thioxothiazolidin-4-one] | 20.35 % of control | 1.71 % of control | 14.94 % of control | 5.16 % of control | 95.08 % of control | 35.83 % of control |
| O=C1NC(=S)S/C1=C\c1c[nH]c2cccnc12 [DN204808, (Z)-5-((1H-pyrrolo[3,2-b]pyridin-3-yl)methylene)-2-thioxothiazolidin-4-one] | 27.48 % of control | 16.09 % of control | 62.2 % of control | 41.11 % of control |  | 73.30 % of control |
| O=C1NC(=S)S/C1=C\c1ccoc1 [DN204298, (Z)-5-(furan-3-ylmethylene)-2-thioxothiazolidin-4-one] | 71.163 % of control | 33.817 % of control | 61.36 % of control | 29.73 % of control | 59.37 % of control | 7.79 % of control |
| O=C1NC(=S)S/C1=C\c1c[nH]c2ccccc12 [DN204296, (Z)-5-((1H-indol-3-yl)methylene)-2-thioxothiazolidin-4-one] | 13.243 % of control | 4.984 % of control | 30.26 % of control | 16.48 % of control | 68.90 % of control | 17.28 % of control |
| O=C1NC(=S)S/C1=C\c1c[nH]c2ccncc12 [DN204807, (Z)-5-((1H-pyrrolo[3,2-c]pyridin-3-yl)methylene)-2-thioxothiazolidin-4-one] | 93.56 % of control | 74.24 % of control |  |  |  | 53.56 % of control |
| O=C1NC(=O)/C(=C/c2c[nH]c3ncccc23)S1 [DN204286, (Z)-5-((1H-pyrrolo[2,3-b]pyridin-3-yl)methylene)thiazolidine-2,4-dione] | 56.04 % of control | 82.71 % of control |  |  |  | 94.23 % of control |
| O=C1NC(=O)C(Cc2cnc3ccccc3c2)S1 (stereo not drawn) [DN204294, 5-(quinolin-3-ylmethyl)thiazolidine-2,4-dione] | 85.91 % of control |  |  |  | 88.64 % of control | 74.80 % of control |
| CN1C(=O)N/C(=C\c2c[nH]c3cccnc23)C1=O [DN204673, (Z)-5-((1H-pyrrolo[3,2-b]pyridin-3-yl)methylene)-3-methylimidazolidine-2,4-dione] |  | 55.87 % of control |  |  | 86.89 % of control | 30.52 % of control |
